Experimental data published in ChEMBL document CHEMBL1201862, “PubChem BioAssay data set” (2004).
The source made the active and inactive calls.

What was measured:
[1] = molecular target: Intestinal-type alkaline phosphatase (Homo sapiens, UniProt P09923); assay: human intestinal alkaline phosphatase activators, dose response, biochemical, luminescence, uHTS hits (AID 463120); type: functional
[2] = molecular target: T1, Sentrin-specific protease 1 (Homo sapiens, UniProt Q9P0U3); assay: SENP1 catalytic domain blockers, concentration series – biochemical, kinetic FRET, dose response (AID 651697); type: functional; conditions: read-out: IC50_Mean
T1 sequence (Q9P0U3 whole entry): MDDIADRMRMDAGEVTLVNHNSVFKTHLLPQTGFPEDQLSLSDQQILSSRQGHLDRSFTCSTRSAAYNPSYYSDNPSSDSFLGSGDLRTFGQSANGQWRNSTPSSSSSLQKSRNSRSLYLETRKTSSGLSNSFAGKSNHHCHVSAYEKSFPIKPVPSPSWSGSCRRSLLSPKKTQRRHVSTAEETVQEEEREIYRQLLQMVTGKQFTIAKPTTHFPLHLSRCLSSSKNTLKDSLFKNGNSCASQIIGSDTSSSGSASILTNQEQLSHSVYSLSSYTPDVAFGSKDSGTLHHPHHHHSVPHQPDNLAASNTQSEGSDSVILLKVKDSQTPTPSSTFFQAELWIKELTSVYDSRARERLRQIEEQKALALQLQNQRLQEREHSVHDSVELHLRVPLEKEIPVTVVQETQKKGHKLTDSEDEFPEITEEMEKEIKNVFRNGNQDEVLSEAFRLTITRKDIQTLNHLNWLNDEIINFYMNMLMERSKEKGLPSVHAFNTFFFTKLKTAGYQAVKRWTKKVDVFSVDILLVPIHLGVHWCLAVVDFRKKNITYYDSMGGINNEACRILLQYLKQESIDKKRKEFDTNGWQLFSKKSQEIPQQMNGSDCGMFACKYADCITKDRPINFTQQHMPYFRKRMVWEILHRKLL

[3] = molecular target: T1, Sentrin-specific protease 1; assay: Dose response confirmation of small molecule inhibitors of the catalytic domain of the SUMO protease, SENP1 in a FRET assay.; type: functional; conditions: read-out: IC50_Mean
[4] = molecular target: Sphingosine 1-phosphate receptor 1 (Homo sapiens, UniProt P21453); assay: Fluorescence-based counterscreen assay for S1P4 agonists: Cell-based dose response high throughput screening assay to identify agonists of the Sphingosine 1-Phosphate Receptor 1 (S1P1). [Related pubchem assays (depositor defined):AID1509, AID1523, AID1801, AID463107, AID463118, AID463119, AID463122, AID463123, AID463129, AID463225, AID504400, AID504460]; type: functional
[5] = molecular target: T2, Sphingosine 1-phosphate receptor 4 (Homo sapiens, UniProt O95977); assay: Fluorescence dose response cell-based high throughput screening assay for agonists of the Sphingosine 1-Phosphate Receptor 4 (S1P4). [Related pubchem assays: 1509 (Primary screen.), 1523 (Confirmation screen in triplicates.)]; type: functional
T2 sequence (O95977 whole entry): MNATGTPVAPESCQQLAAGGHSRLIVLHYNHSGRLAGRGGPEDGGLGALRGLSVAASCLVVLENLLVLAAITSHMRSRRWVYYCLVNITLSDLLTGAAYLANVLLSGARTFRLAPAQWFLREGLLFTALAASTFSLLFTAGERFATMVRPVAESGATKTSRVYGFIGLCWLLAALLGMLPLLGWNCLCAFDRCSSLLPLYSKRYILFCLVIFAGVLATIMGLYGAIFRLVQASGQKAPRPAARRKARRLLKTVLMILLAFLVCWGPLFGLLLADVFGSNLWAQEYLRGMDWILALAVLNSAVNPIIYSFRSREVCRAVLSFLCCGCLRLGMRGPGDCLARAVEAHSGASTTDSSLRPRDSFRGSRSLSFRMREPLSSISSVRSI

[6] = molecular target: T3, 5-hydroxytryptamine receptor 1A (Homo sapiens, UniProt P08908); type: functional
T3 sequence (P08908 whole entry): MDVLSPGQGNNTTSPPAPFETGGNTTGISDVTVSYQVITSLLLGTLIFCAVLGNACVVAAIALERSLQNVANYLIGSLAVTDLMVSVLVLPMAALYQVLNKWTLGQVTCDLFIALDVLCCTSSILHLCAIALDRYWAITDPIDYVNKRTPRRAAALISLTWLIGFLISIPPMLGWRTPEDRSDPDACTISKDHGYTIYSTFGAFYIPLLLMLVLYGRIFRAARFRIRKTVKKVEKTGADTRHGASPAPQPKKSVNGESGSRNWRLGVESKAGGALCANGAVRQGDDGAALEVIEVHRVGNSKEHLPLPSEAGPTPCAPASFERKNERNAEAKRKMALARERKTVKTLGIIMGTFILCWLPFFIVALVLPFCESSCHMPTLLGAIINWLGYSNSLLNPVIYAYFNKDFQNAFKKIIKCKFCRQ

[7] = molecular target: Sphingosine 1-phosphate receptor 2 (Homo sapiens, UniProt O95136); assay: Dose Response Cell Based Assay for Agonists of the S1P2 Receptor. [Related pubchem assays: 729, 736, 843 ]; type: functional
SUMO-activating enzyme [8] = molecular target: T4, SUMO-activating enzyme (Homo sapiens, UniProt Q9UBT2); assay: blockers of UBC9-mediated SUMO conjugation – biochemical, AlphaScreen, SUMOylation inhibitor project, confirmation (AID 2018); type: functional
SUMO-activating enzyme [9] = molecular target: T4, SUMO-activating enzyme; assay: blockers of SAE1/SAE2–UBC9 SUMO transfer – biochemical, HTRF, uHTS, primary screen (AID 2006); type: protein-complex assay
[10] = molecular target: T5, Tyrosine-protein phosphatase non-receptor type 22 (Homo sapiens, UniProt Q9Y2R2); assay: SAR LYP1 Fluorescent Assay using pCAP substrate for In Vitro dose response studies - Set 2. [Related pubchem assays (depositor defined):AID1779, AID1784, AID2135, AID449727]; type: functional
T5 sequence (Q9Y2R2 whole entry): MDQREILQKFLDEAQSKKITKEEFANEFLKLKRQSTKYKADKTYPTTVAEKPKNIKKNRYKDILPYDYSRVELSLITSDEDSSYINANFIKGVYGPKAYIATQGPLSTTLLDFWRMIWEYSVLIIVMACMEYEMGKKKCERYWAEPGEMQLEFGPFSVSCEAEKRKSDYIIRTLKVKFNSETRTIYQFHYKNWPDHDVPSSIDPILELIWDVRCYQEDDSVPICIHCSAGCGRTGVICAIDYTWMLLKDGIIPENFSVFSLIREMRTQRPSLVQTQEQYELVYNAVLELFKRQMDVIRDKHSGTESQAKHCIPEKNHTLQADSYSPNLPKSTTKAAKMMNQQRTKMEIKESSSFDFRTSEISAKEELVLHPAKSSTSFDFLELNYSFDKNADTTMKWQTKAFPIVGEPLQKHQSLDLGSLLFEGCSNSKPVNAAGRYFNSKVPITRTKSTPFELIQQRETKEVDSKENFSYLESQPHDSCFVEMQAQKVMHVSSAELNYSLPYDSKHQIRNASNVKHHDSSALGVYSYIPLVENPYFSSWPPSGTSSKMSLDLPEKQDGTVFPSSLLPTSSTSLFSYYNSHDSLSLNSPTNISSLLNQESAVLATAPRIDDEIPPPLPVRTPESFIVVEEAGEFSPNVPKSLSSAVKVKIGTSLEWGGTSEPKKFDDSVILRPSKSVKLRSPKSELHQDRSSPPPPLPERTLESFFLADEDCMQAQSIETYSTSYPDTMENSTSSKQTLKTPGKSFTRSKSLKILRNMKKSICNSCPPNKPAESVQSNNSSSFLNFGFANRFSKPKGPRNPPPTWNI

[11] = molecular target: T6, Tyrosine-protein phosphatase non-receptor type 12 (Homo sapiens, UniProt Q05209); assay: SAR Selectivity Analysis of small molecule inhibitors of PEST using pCAP in a fluorescence assay. [Related pubchem assays (depositor defined):AID1779, AID1784, AID2135]; type: functional
T6 sequence (Q05209 whole entry): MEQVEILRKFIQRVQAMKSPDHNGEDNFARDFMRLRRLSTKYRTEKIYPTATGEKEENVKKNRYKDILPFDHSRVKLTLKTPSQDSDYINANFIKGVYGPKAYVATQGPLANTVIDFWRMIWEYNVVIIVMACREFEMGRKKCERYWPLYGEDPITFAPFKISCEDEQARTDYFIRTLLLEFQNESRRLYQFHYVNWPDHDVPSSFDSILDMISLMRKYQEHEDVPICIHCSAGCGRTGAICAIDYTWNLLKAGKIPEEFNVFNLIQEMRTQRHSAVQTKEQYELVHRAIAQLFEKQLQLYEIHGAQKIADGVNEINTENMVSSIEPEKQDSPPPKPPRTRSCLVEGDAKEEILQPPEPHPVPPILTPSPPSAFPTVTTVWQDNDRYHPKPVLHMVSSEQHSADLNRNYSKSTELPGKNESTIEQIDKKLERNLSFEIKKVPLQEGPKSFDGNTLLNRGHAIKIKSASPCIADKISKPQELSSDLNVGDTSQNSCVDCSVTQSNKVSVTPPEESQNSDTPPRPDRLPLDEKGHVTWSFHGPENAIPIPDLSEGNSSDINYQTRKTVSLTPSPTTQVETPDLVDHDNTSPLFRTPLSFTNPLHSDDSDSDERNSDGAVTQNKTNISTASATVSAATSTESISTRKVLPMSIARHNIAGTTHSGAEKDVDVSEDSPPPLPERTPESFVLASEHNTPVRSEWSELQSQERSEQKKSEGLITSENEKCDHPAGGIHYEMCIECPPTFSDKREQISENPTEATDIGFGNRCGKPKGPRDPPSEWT

[12] = molecular target: T5, Tyrosine-protein phosphatase non-receptor type 22; assay: SAR LYP1 Fluorescent Assay using OMFP substrate for In Vitro dose response studies - Set 3. [Related pubchem assays (depositor defined):AID1779, AID1784, AID2140, AID2686]; type: functional
[13] = molecular target: T7, Tyrosine-protein phosphatase non-receptor type 7 (Homo sapiens, UniProt P35236); assay: inhibition of hematopoietic tyrosine phosphatase HePTP – biochemical, set 2, SAR follow-up (AID 449736); type: functional
T7 sequence (P35236 whole entry): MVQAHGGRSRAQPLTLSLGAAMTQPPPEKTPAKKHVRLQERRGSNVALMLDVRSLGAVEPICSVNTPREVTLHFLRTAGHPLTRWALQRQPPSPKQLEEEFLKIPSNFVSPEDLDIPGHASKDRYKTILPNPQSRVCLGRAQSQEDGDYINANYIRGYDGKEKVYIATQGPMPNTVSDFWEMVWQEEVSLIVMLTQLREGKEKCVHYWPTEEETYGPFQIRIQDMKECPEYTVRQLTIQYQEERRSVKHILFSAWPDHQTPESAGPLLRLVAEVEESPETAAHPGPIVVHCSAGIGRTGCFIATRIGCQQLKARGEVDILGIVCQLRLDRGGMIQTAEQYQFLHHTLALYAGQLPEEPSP

[14] = molecular target: T5, Tyrosine-protein phosphatase non-receptor type 22; assay: inhibition of lymphoid tyrosine phosphatase LYP – biochemical, pCAP fluorogenic substrate, fluorescence, set 3, SAR follow-up (AID 449727); type: functional
[15] = molecular target: T5, Tyrosine-protein phosphatase non-receptor type 22; assay: SAR LYP1 Fluorescent Assay using OMFP substrate for In Vitro dose response studies - Set 2. [Related pubchem assays (depositor defined):AID1779, AID1784, AID2140, AID449726, AID488869]; type: functional
[16] = molecular target: T8, Small ubiquitin-related modifier 1 (Homo sapiens, UniProt P63165); assay: SUMO1 protein interaction blockers, potency – biochemical, fluorescence polarization, uHTS hits, dose response (AID 624382); type: functional; conditions: read-out: IC50_Mean
[17] = molecular target: T8, Small ubiquitin-related modifier 1; assay: SUMO1 protein-protein binding blockers, potency – biochemical, FRET, dose response (AID 624383); type: functional; conditions: read-out: IC50_Mean
[18] = molecular target: Voltage-dependent T-type calcium channel subunit alpha-1H (Homo sapiens, UniProt O95180); assay: human CACNA1H calcium influx blockade – cell-based, synthetic library set 2, HEK293 HH8, Fluo-4, SAR follow-up (AID 493023); type: functional
[19] = molecular target: T9, Kappa-type opioid receptor (Homo sapiens, UniProt P41145); assay: SAR analysis of small molecule antagonists of the kappa opioid receptor via a luminescent beta-arrestin assay - Set 4. [Related pubchem assays (depositor defined):AID1777, AID1778, AID1785, AID1786, AID1966, AID2133, AID2136, AID2285]; type: functional
[20] = molecular target: T9, Kappa-type opioid receptor; assay: SAR analysis of small molecule antagonists of the kappa opioid receptor via a luminescent beta-arrestin assay - Set 5. [Related pubchem assays (depositor defined):AID1778, AID1785]; type: functional

T8 sequence (P63165 whole entry): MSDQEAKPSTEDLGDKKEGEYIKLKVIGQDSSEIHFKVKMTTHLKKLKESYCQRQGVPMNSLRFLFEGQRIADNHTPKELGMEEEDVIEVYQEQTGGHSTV
T4 sequence (Q9UBE0 whole entry): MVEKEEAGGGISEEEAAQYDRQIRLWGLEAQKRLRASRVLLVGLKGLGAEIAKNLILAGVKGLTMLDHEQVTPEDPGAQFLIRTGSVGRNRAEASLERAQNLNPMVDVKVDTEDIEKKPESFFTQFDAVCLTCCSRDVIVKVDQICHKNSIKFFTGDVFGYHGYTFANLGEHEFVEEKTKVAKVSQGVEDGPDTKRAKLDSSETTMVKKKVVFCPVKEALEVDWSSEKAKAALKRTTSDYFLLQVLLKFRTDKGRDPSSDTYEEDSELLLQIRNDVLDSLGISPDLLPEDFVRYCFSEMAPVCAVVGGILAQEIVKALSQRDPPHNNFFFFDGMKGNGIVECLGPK
T4 sequence (Q9UBT2 whole entry): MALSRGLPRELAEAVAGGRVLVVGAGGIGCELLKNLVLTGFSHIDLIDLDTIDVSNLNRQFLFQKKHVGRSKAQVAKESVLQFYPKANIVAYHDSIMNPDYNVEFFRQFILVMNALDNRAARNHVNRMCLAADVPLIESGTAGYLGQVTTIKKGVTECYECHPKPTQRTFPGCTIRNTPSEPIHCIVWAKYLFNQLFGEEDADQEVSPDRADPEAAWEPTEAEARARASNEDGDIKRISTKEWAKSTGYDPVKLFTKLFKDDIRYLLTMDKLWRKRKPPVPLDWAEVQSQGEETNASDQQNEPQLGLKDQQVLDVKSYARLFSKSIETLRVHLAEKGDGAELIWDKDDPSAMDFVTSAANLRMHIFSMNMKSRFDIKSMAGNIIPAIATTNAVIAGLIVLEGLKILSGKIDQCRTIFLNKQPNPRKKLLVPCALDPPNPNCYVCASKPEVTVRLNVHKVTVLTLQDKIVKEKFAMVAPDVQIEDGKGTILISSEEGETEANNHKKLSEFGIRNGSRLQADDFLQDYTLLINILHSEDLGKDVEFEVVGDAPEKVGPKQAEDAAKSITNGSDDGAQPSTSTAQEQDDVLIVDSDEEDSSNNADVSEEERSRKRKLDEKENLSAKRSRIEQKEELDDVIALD
T9 sequence (P41145 whole entry): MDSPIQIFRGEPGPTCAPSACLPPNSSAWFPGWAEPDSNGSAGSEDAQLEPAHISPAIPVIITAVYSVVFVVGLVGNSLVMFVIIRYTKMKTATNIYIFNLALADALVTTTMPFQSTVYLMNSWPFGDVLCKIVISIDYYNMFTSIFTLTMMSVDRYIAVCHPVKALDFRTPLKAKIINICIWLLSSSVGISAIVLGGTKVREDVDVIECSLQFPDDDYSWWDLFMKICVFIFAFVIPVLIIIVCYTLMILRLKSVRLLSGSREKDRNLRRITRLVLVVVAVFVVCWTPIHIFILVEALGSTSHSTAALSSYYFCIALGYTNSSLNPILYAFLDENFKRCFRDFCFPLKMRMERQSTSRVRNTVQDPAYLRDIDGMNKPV
Sequence of Sphingosine 1-phosphate receptor 1 (P21453 whole entry): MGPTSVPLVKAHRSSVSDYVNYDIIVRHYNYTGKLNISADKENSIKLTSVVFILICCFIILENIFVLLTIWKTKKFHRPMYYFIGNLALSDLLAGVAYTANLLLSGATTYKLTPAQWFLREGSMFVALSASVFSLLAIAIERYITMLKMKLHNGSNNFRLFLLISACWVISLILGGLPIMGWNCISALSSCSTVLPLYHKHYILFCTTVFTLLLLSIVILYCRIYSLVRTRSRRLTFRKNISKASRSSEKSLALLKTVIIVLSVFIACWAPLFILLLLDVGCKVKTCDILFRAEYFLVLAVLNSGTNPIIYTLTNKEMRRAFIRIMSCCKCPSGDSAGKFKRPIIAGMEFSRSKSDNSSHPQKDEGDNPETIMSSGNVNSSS
Sequence of Intestinal-type alkaline phosphatase (P09923 whole entry, the tested form may be a part): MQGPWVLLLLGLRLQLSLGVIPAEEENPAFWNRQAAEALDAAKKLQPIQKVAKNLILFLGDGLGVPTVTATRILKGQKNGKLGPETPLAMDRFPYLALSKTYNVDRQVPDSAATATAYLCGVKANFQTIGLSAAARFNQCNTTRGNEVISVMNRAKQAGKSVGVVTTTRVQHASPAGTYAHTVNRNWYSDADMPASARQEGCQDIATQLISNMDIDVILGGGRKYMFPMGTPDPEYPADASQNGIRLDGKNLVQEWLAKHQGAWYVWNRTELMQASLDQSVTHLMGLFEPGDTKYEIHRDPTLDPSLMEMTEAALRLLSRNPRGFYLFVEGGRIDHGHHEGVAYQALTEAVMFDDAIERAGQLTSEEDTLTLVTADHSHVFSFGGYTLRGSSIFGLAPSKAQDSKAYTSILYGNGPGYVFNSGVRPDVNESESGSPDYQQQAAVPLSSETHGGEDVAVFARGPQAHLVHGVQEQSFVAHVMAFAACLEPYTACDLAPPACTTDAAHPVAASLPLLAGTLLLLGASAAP
Sequence of Sphingosine 1-phosphate receptor 2 (O95136 whole entry): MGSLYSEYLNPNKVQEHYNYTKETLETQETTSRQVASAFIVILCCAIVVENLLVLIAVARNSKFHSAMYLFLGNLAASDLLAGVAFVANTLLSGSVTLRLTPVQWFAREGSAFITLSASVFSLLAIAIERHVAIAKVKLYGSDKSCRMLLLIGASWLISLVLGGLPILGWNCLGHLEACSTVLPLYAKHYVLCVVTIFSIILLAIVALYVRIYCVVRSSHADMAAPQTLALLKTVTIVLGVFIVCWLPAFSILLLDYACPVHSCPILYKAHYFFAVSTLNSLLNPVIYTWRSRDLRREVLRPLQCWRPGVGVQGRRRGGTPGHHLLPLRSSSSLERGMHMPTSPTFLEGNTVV

SMILES: O=C(NNc1nc2c(F)cccc2s1)c1cc(=O)c2ccccc2o1
- EC50 [1]: 10.3 µM (active)
- IC50 [2]: 6.67 µM (active)
- IC50 [3]: 7.06 µM (active)

SMILES: CCOC(=O)c1cc2ccc(OC(=O)c3ccco3)cc2oc1=O
- EC50 [4]: 2.08 µM (active)
- EC50 [5]: 0.785 µM (active)
- EC50 [6]: > 50 µM (not active)
- EC50 [7]: 1.99 µM (active)

SMILES: COc1cc(/C=C(\C#N)C(=O)Nc2cccc(C(=O)O)c2)ccc1OCc1ccc(Cl)cc1
- IC50 (SUMO-activating enzyme [8]): 3.61 µM (active)
- IC50 (SUMO-activating enzyme [9]): 17.5 µM (active)
- IC50 [10]: 6.89 µM (active)
- IC50 [11]: 2.6 µM (active)
- IC50 [12]: 2.6 µM (active)
- IC50 [13]: 0.557 µM (active)
- IC50 [14]: 6.59 µM (active)
- IC50 [15]: 4.78 µM (active)
- IC50 [16]: > 66.6 µM (inactive)
- IC50 [17]: 13 µM (active)

SMILES: O=C(N[C@H]1CCCN(Cc2ccccc2)C1)c1cc(Cl)cc(Cl)c1
- EC50 [18]: 10 µM (active)

SMILES: Cc1ccc(S(=O)(=O)NCc2ccc(C(=O)NCCN(C)[C@H](C)c3ccccc3)cc2)cc1
- IC50 [19]: 3.38 µM (active)
- IC50 [20]: 2.4 µM (active)
